Test results from patent EP2966448B1, “METHOD FOR THE PREDICTION OR PROGNOSIS OF THE RESPONSE OF A HUMAN SUBJECT SUFFERING FROM CANCER TO TREATMENT WITH AN ANTAGONIST OF THE NK1 RECEPTOR” (priority 2013, dated 2014).
Like-named read-outs stand apart in the source and are kept apart here.

What was measured:
Fibrosarcoma = assay: Inhibition of primary tumor cell cultures (48 hours) vs NK1 receptor immunostaining (Example 1); assay type: cell-based; conditions: Homo sapiens, 1 micromolar, read-out: Percentage of inhibition of cell cultures
Procedure: (§1) Cell cultures. To obtain tumor cells from human primary tumors we used the method described in De Bari et al. (De Bari et al. 2001). Briefly, small pieces of the tumors were digested into a hyaluronidase solution (Sigma-Aldrich, USA) at a concentration of 1 mg/ml during 15 minutes at 37°C, and then they were treated with 6 mg/ml of collagenase type IV (Invitrogen) during 2 hours at 37°C. Consecutively, cells were washed, and resuspended in the DMEM culture medium with high concentration of glucose (Dulbecco's Modified Eagle's Medium, Invitrogen) supplemented with 1% of antibiotics-antimycotics (Invitrogen) and with 1% of sodium pyruvate (Invitrogen), and the cells were seeded in culture slides at a concentration of 10.000 cells per square centimeter. When cells reached confluence, the adherent cells were separated using sterile trypsin at 0,5% (Invitrogen) and they were used among passages 3 and 9. For the assays shown next, tumor cells were seeded on slides at a concentration of 25.000 cells per well. A total of 6 wells containing the tumor cells were used as survival control. […] All the cultures were kept during 48 hours and later on recollected for their analysis.
(§2) Immunohistochemistry techniques. The presence of NK1 receptors was also analyzed using immunohistochemistry techniques. Briefly, a sample of each of the cultures of the cell lines used in the present invention, was centrifuged (5 minutes at 1.500 rpm) and the pellet obtained was dehydrated using increasing concentrations of ethanol and, finally, xylol. Then, said dehydrated samples were embedded in paraffin, creating a block of cells. Such paraffin blocks were cut with a microtome at 5 microns thickness, and were placed on microscope slides adequate to perform immunohistochemistry techniques. Consecutively, they were de-paraffinized by immersing them in xylol, to be finally hydrated using a solution containing decreasing concentrations of ethanol, and finally submerged them into water. […] After this, the samples were left to cool down at room temperature for 10 minutes. The endogenous peroxidase activity was blocked with 3% peroxide of hydrogen for 30 minutes at room temperature. After washing the samples with 0.05 M of Tris buffer, they were incubated with 10% non-immune pork serum at for 30 minutes at room temperature. To analyze the expression of NK1 receptors, the cellular samples were incubated in the presence of anti-NK1 antibodies (S8305, Sigma-Aldrich) diluted 1:1000, overnight at 4°C. Afterwards, the samples were washed in Tris buffer 0.05 M at room temperature. The next step was the addition of Envision System-HRP (Dako) reagents for 30 minutes at room temperature. Then, the samples were washed again in Tris buffer 0.05 M and the immunoreactivity was visualized through light microscopy with a chromogenic solution containing 3,3'-Diaminobenzidine (DAB+; Dako, USA). To differentiate the cell nuclei, they were slightly stained with hematoxylin. As negative control, it was used samples not incubated with the primary antibody anti-NK1, which was replaced by non-immune serum. All the samples were evaluated.
(§3) To value the immunostaining in each of the cases six cuts were performed to be analyzed by the immunohistochemistry technique. In each of the six cuts, it was counted cells in 20 fields (magnification 400x) using an Olympus microscope (model CX31). In each field it was counted the total number of cells and the number of cells presenting immunostaining, calculating afterwards the percentage of cells which presented immunostaining.

[1] = tested on: Malignant Fibrous Histiocytoma; assay: as above; assay type: cell-based; conditions: Homo sapiens, 1 micromolar, read-out: Percentage of inhibition of cell cultures
Procedure: as §1, §2, §3

Ewing Sarcoma = assay: as above; assay type: cell-based; conditions: Homo sapiens, 1 micromolar, read-out: Percentage of inhibition of cell cultures
Procedure: as §1, §2, §3

Neuroblastoma = assay: as above; assay type: cell-based; conditions: Homo sapiens, 1 micromolar, read-out: Percentage of inhibition of cell cultures
Procedure: as §1, §2, §3

Leukemia B = assay: as above; assay type: cell-based; conditions: Homo sapiens, 1 micromolar, read-out: Percentage of inhibition of cell cultures
Procedure: as §1, §2, §3

Leukemia T = assay: as above; assay type: cell-based; conditions: Homo sapiens, 1 micromolar, read-out: Percentage of inhibition of cell cultures
Procedure: as §1, §2, §3

Non Hodgkin Lymphoma B = assay: as above; assay type: cell-based; conditions: Homo sapiens, 1 micromolar, read-out: Percentage of inhibition of cell cultures
Procedure: as §1, §2, §3

[2] = tested on: Gastric carcinoma (Adenocarcinoma); assay: Inhibition of primary tumor cell cultures vs Kras mutation (Example 2); assay type: cell-based, human; conditions: Homo sapiens, 100 micromolar, read-out: Percentage of inhibition of cell cultures
Procedure: (§4) Cell cultures. […] Briefly, small pieces of the tumors were digested into a hyaluronidase solution (Sigma-Aldrich, USA) at a concentration of 1 mg/ml during 15 minutes at 37°C, and then they were treated with 6 mg/ml of collagenase type IV (Invitrogen) during 2 hours at 37°C. Consecutively, cells were washed, and resuspended in the DMEM culture medium with high concentration of glucose (Dulbecco's Modified Eagle's Medium, Invitrogen) supplemented with 1% of antibiotics-antimycotics (Invitrogen) and with 1% of sodium pyruvate (Invitrogen), and the cells were seeded in culture slides at a concentration of 10.000 cells per square centimeter. When cells reached confluence, the adherent cells were separated using sterile trypsin at 0,5% (Invitrogen) and they were used among passages 3 and 9. For the assays shown next, tumor cells were seeded on slides at a concentration of 25.000 cells per well. A total of 6 wells containing the tumor cells were used as survival control. […] All the cultures were kept during 48 hours and later on recollected for their analysis.
(§5) In each case the presence or not of mutations in K-ras gene was determined.
(§6) To determine the existence of mutations in the K-ras gene DNA from cancer tumor cells was extracted from samples obtained from the different cancer tumor cells, using DNA extraction kits from Takara (Madison, WI, US) or Ambion (Huntingdon, Cambridgeshire, United Kingdom), following the manufacturer's instructions, and as it has been previously published (Di Fiore F, et al. 2007). Consecutively it was analyzed by sequencing the exon 2 of the KRAS gene, , by means of PCR amplification from previously extracted cancer tumor DNA, using the following sense primer (SEQ ID NO. 15): 5'-[sequence]-3' and anti-sense primer (SEQ ID NO. 16): 5'-[sequence]-3'. After the purification using the Qiagen extraction kit, the PCR products were sequenced using the Big Dye Terminator Kit V3.1 (Applied Biosystems, Foster City, CA, U.S.) and an ABI Prism 377 or 3100 DNA sequencer (Applied Biosystems). The presence of a heterozygous mutation in the KRAS gene in cancer tumor cells of the cultures was defined as the appearance of a mutant peak of a height of at least a third of the wild type. All the sequence analysis were executed at least twice in two independent PCR.
(§7) The antibody against NK1 receptor (Table 16) was used at 1/50 concentration. The percentages of inhibition are expressed in percentage of variation in relation to control ± standard deviation.

[3] = tested on: Pancreatic carcinoma (Adenocarcinoma); assay: as above; assay type: cell-based, human; conditions: Homo sapiens, 100 micromolar, read-out: Percentage of inhibition of cell cultures
Procedure: as §4, §5, §6, §7

[4] = tested on: Thyroid carcinoma (papillary carcinoma); assay: as above; assay type: cell-based, human; conditions: Homo sapiens, 100 micromolar, read-out: Percentage of inhibition of cell cultures
Procedure: To obtain tumor cells from human primary tumors we used the method described in De Bari et al. (De Bari et al. 2001). Briefly, small pieces of the tumors were digested into a hyaluronidase solution (Sigma-Aldrich, USA) at a concentration of 1 mg/ml during 15 minutes at 37°C, and then they were treated with 6 mg/ml of collagenase type IV (Invitrogen) during 2 hours at 37°C. Consecutively, cells were washed, and resuspended in the DMEM culture medium with high concentration of glucose (Dulbecco's Modified Eagle's Medium, Invitrogen) supplemented with 1% of antibiotics-antimycotics (Invitrogen) and with 1% of sodium pyruvate (Invitrogen), and the cells were seeded in culture slides at a concentration of 10.000 cells per square centimeter. When cells reached confluence, the adherent cells were separated using sterile trypsin at 0,5% (Invitrogen) and they were used among passages 3 and 9. For the assays shown next, tumor cells were seeded on slides at a concentration of 25.000 cells per well. A total of 6 wells containing the tumor cells were used as survival control. […] All the cultures were kept during 48 hours and later on recollected for their analysis.
as §5, §6, §7

[5] = tested on: Undifferentiated Pleomorphic Sarcoma (malignant fibrous histiocytoma grade 3); assay: as above; assay type: cell-based, human; conditions: Homo sapiens, 100 micromolar, read-out: Percentage of inhibition of cell cultures
Procedure: as §1, §5, §6
(§8) The percentages of inhibition are expressed in percentage of variation in relation to control ± standard deviation.

[6] = tested on: Melanoma (Nodular Melanoma); assay: as above; assay type: cell-based, human; conditions: Homo sapiens, 100 micromolar, read-out: Percentage of inhibition of cell cultures
Procedure: as §1, §5, §6, §8

[7] = tested on: Non Hodgkin Lymphoma B (diffuse B cell lymphoma); assay: as above; assay type: cell-based, human; conditions: Homo sapiens, B-cell, 100 micromolar, read-out: Percentage of inhibition of cell cultures
Procedure: as §1, §5, §6, §8

Burkitt Lymphoma = assay: as above; assay type: cell-based, human; conditions: Homo sapiens, 100 micromolar, read-out: Percentage of inhibition of cell cultures
Procedure: as §1, §5, §6, §7

[8] = tested on: human primary tumor cells; assay: Inhibition of primary tumor cell cultures vs absence or presence of AKT protein (Example 4; tumor type per table line); assay type: cell-based; conditions: cancer cell cultures showing more presence of AKT, compared; non-peptidic antagonists 100 micromolar, antibody 1/50
Procedure: as §4
Afterwards, the cells were cultured in presence of several antagonists of the NK1 receptor.
In each case it was determined the presence or absence of the AKT protein effector downstream in the PI3 Kinases pathway.
To determine the presence of the AKT protein in the different cultures Western Blot technique was performed (following the description in example 1-Western Blot section), but using as primary antibody with reference: Akt (pan) (11E7) Rabbit mAb (4685, Cell Signalling).
The antibody against NK1 receptor (Table 26) was used at 1/50 concentration. The percentages of inhibition are expressed in percentage of variation in relation to control ± standard deviation.

Endometrium carcinoma = assay: cells; conditions: Homo sapiens, 1 micromolar
Procedure: as §1, §2, §3

[9] = NK1 receptor immunostaining Intensity grade 2
[10] = NK1 receptor immunostaining Intensity grade 3
[11] = NK1 receptor immunostaining Group 1 (less than 20% of the cells)
[12] = NK1 receptor immunostaining Group 2 (20-80% of the cells)
[13] = NK1 receptor immunostaining Group 3 (more than 80% of the cells)
[14] = NK1 receptor immunostaining Intensity grade 1
[15] = Cases with Kras non-mutated (wild type)

Compound: CC(=O)N1CCN([C@H]2CCN(C(=O)N(C)[C@H](C)c3cc(C(F)(F)F)cc(C(F)(F)F)c3)[C@@H](c3ccc(F)cc3C)C2)CC1 [Casopitant]
- inhibition at 1 µM (Fibrosarcoma; [9]): 55 ± 3%
- inhibition at 1 µM (Fibrosarcoma; [10]): 92 ± 4%
- inhibition at 1 µM [1, 11]: 14 ± 3%
- inhibition at 1 µM [1, 12]: 46 ± 4%
- inhibition at 1 µM [1, 13]: 94 ± 5%
- inhibition at 1 µM [1, 14]: 32 ± 5%
- inhibition at 1 µM [1, 9]: 53 ± 4%
- inhibition at 1 µM [1, 10]: 93 ± 2%
- inhibition at 1 µM (Ewing Sarcoma; [11]): 15 ± 2%
- inhibition at 1 µM (Ewing Sarcoma; [12]): 47 ± 5%
- inhibition at 1 µM (Ewing Sarcoma; [13]): 93 ± 5%
- inhibition at 1 µM (Ewing Sarcoma; [14]): 33 ± 4%
- inhibition at 1 µM (Ewing Sarcoma; [9]): 54 ± 3%
- inhibition at 1 µM (Ewing Sarcoma; [10]): 92 ± 4%
- inhibition at 1 µM (Neuroblastoma; [11]): 16 ± 2%
- inhibition at 1 µM (Neuroblastoma; [12]): 45 ± 4%
- inhibition at 1 µM (Neuroblastoma; [13]): 94 ± 4%
- inhibition at 1 µM (Neuroblastoma; [14]): 35 ± 4%
- inhibition at 1 µM (Neuroblastoma; [9]): 55 ± 5%
- inhibition at 1 µM (Neuroblastoma; [10]): 94 ± 4%
- inhibition at 1 µM (Leukemia B; [11]): 17 ± 3%
- inhibition at 1 µM (Leukemia B; [12]): 46 ± 5%
- inhibition at 1 µM (Leukemia B; [13]): 94 ± 6%
- inhibition at 1 µM (Leukemia B; [14]): 36 ± 3%
- inhibition at 1 µM (Leukemia B; [9]): 52 ± 3%
- inhibition at 1 µM (Leukemia B; [10]): 92 ± 5%
- inhibition at 1 µM (Leukemia T; [11]): 16 ± 2%
- inhibition at 1 µM (Leukemia T; [12]): 47 ± 5%
- inhibition at 1 µM (Leukemia T; [13]): 95 ± 3%
- inhibition at 1 µM (Leukemia T; [14]): 34 ± 2%
- inhibition at 1 µM (Leukemia T; [9]): 56 ± 4%
- inhibition at 1 µM (Leukemia T; [10]): 93 ± 3%
- inhibition at 1 µM (Non Hodgkin Lymphoma B; [11]): 15 ± 3%
- inhibition at 1 µM (Non Hodgkin Lymphoma B; [12]): 46 ± 5%
- inhibition at 1 µM (Non Hodgkin Lymphoma B; [13]): 94 ± 4%
- inhibition at 1 µM (Non Hodgkin Lymphoma B; [14]): 32 ± 3%
- inhibition at 1 µM (Non Hodgkin Lymphoma B; [9]): 55 ± 5%
- inhibition at 1 µM (Non Hodgkin Lymphoma B; [10]): 94 ± 4%
- inhibition at 100 µM ([2]; Cases with Kras mutated): 25 ± 5%
- inhibition at 100 µM [2, 15]: 95 ± 5%
- inhibition at 100 µM ([3]; Cases with Kras mutated): 27 ± 3%
- inhibition at 100 µM [3, 15]: 93 ± 4%
- inhibition at 100 µM ([4]; Cases with Kras mutated): 24 ± 5%
- inhibition at 100 µM [4, 15]: 94 ± 5%
- inhibition at 100 µM ([5]; Cases with Kras mutated): 26 ± 5%
- inhibition at 100 µM [5, 15]: 95 ± 5%
- inhibition at 100 µM ([6]; Cases with Kras mutated): 25 ± 6%
- inhibition at 100 µM [6, 15]: 94 ± 6%
- inhibition at 100 µM ([7]; Cases with Kras mutated): 26 ± 3%
- inhibition at 100 µM [7, 15]: 95 ± 4%
- inhibition at 100 µM (Burkitt Lymphoma; Cases with Kras mutated): 25 ± 2%
- inhibition at 100 µM (Burkitt Lymphoma; [15]): 92 ± 5%
- inhibition of cell proliferation [8]: higher inhibition
- inhibition at 1 µM (Endometrium carcinoma; read-out: Percentage of inhibition of cell cultures, NK1 receptor immunostaining Group 1 (less than 20% of the cells)): 16 ± 3%
- inhibition at 1 µM (Endometrium carcinoma; read-out: Percentage of inhibition of cell cultures, NK1 receptor immunostaining Group 2 (20-80% of the cells)): 46 ± 3%
- inhibition at 1 µM (Endometrium carcinoma; read-out: Percentage of inhibition of cell cultures, NK1 receptor immunostaining Group 3 (more than 80% of the cells)): 92 ± 3%
- inhibition at 1 µM (Endometrium carcinoma; read-out: Percentage of inhibition of cell cultures, NK1 receptor immunostaining Intensity grade 1): 34 ± 5%
- inhibition at 1 µM (Endometrium carcinoma; read-out: Percentage of inhibition of cell cultures, NK1 receptor immunostaining Intensity grade 2): 55 ± 5%
- inhibition at 1 µM (Endometrium carcinoma; read-out: Percentage of inhibition of cell cultures, NK1 receptor immunostaining Intensity grade 3): 94 ± 4%
